“And” between values parts separate entries of the source, which are not always exact repeats. Equal entries are not always repeated.
Target: LC3B (Homo sapiens, UniProt Q9GZQ8)
Assay: FP assay with Cy5-labelled p62 LIR tracer (protein titration and tracer displacement)
Format: binding
Details: replicates, listed as TH152

## CCCCCCC(Sc1nc(Cl)cc(Nc2nc(-c3ccc(C(=O)O)cc3)cs2)n1)C(=O)O (centres unmarked) [compound 21]
log10 concentration [M] -3.5
  FP assay result (normalised FP signal): 5.227 and 1.651 and 6.602 and 11.5543
log10 concentration [M] -4
  FP assay result (normalised FP signal): 15.956 and 18.4319 and 23.3838 and 18.9821
log10 concentration [M] -4.5
  FP assay result (normalised FP signal): 38.7895 and 39.3398 and 43.1912 and 47.3177
log10 concentration [M] -5
  FP assay result (normalised FP signal): 78.6795 and 79.2297 and 89.1334 and 88.033
log10 concentration [M] -5.5
  FP assay result (normalised FP signal): 90.5089 and 85.8322 and 98.2118 and 94.9106
log10 concentration [M] -6
  FP assay result (normalised FP signal): 92.7098 and 95.4608 and 102.063 and 101.238
log10 concentration [M] -6.5
  FP assay result (normalised FP signal): 91.0591 and 89.9587 and 97.9367 and 96.8363
log10 concentration [M] -7
  FP assay result (normalised FP signal): 91.6094 and 98.762 and 103.439 and 102.063
log10 concentration [M] -7.5
  FP assay result (normalised FP signal): 90.2338 and 98.4869 and 99.3122 and 100.138
log10 concentration [M] -8
  FP assay result (normalised FP signal): 98.762 and 98.2118 and 100.413 and 102.613
log10 concentration [M] -8.5
  FP assay result (normalised FP signal): 94.9106 and 100.413 (2×) and 103.439

Reference: PMC11589570, “Critical assessment of LC3/GABARAP ligands used for degrader development and ligandability of LC3/GABARAP binding pockets” (Nature Communications, 2024)
